# According to patent publication US20230174484A1, “ANTAGONISTS OF GPR39 PROTEIN” (Oregon Health & Science University, priority 2020, published 2023):
# Molecular target: T1, human GPR39 receptor (Homo sapiens, UniProt O43194)
# T1 construct: PC3 Cells, Expressing the Endogenous Human GPR39 Receptor; endogenous in cells; host or cells: PC3 (human prostate adenocarcinoma) cells
# T1 sequence (O43194 1-453): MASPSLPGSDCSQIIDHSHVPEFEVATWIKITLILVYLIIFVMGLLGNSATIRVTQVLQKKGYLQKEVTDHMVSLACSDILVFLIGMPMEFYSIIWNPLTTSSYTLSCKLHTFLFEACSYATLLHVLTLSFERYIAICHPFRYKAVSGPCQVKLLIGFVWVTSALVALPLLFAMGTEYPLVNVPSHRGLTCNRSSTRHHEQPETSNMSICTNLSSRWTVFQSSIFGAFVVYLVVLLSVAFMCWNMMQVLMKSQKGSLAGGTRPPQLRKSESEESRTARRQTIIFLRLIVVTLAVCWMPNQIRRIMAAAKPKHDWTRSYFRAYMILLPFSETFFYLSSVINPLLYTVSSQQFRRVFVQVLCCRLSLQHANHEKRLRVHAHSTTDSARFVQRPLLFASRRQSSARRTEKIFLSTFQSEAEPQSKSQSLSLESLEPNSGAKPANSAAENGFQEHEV
# Test: Measurement of intracellular calcium response in PC3 cells (FLIPR), antagonism of the C3 agonist response
# Assay type: cell-based
# Conditions: functional pKi (modified Cheng-Prusoff), inhibition of the C3 (TC-G 1008) response at EC90, 30 μM ZnCl2, read-out: fpKi activity
# Experimental: Human prostate adenocarcinoma (PC3) cells endogenously expressing human GPR39 receptor were seeded into black walls clear-base 384-well plates at a density of 7,500 cells per well in DM EM (Low Glucose) supplemented with 10% heat-inactivated foetal bovine serum and 1% of Pen/Strep and grown overnight at 37° C., 5% CO2. After washing with assay buffer (20 mM HEPES, 137 mM NaCI, 5.4 mM KCI, 10 mM glucose, 0.8 mM MgSO4, 1.3 mM CaCl2, 0.3 mM Na2HPO4, 0.4 mM KH2PO4 4.2 mM NaHCO3, pH 7.4), cells were incubated with Calcium-6 probe (Molecular Devices) at 37° C. for 2h and then equilibrated at RT for 30 minutes on metal block. The fluorescence was measured in real time by Fluorometric Imaging Plate Reader (FLIPR TETRA, Molecular Devices) (excitation wavelength at 470-495 nm, emission wavelength at 515-575 nm).
# Compounds of invention were serially diluted in neat DMSO at 1000 fold concentrations and plated into 384-well plates and then 200-fold diluted in assay buffer containing 150 uM ZnCl2 (30 μM final concentration) and […].
# Fluorescence was monitored throughout the run assay. The peak of Ca2+stimulation (baseline subtracted) was expressed as percentage of the maximal inhibition of the EC90 C3 response and was plotted versus the concentration of test compound. Curve fitting and IC50 estimations are carried out using a four-parameter logistic model using XLfit Software.
# The potency of compounds was reported as functional pKi (—Log10Ki) obtained using the modified Cheng-Prusoff relationship (Cheng, Y., Prusoff, W. H. 1973.)
# fKi =IC50/(1+[L]/EC50) where IC50 is the concentration of antagonist required for 50% inhibition of the maximum response, [L] is the concentration of the agonist used (EC90) and EC50 is the concentration of agonist need to induced 50% of the maximum response (obtained in each experimental plate).
# An fpKi less than 5.2 is reported as “+/±”. An fpKi ranging from 5.2 to 5.9 is reported as “+”. An fpKi from 6.0 to 6.5 is reported as “++”. An fpKi from 6.6 to 7.2 is reported as “+++”. An fpKi equal to or greater than 7.3 is reported as “++++”.
row,Ki,Compound
1,63.1 to 251 nM,"CN1CCN(C(=O)c2ccc(NC(=O)C3CC3)cc2N2CCCC2)C(c2ccccc2)C1 (racemic) [Example 62c, N-[4-(4-methyl-2-phenylpiperazine-1-carbonyl)-3-pyrrolidin-1-ylphenyl]Cyclopropanecarboxamide]"
2,≤ 50.1 nM,"CC1CCN(c2cc(NC(=O)C3CC3)ccc2C(=O)N2CCC(C(F)(F)F)CC2)C1 (racemic) [Example 63c, N-[3-(3-methylpyrrolidin-1-yl)-4-[4-(trifluoromethyl)piperidine-1-carbonyl]phenyl]cyclopropanecarboxamide]"
3,≤ 50.1 nM,"CN1CCN(C(=O)c2ccc(NC(=O)C3CC3)cc2N2CCC3(CCC3)C2)C(c2ccccc2)C1 (racemic) [Example 66c, N-[3-(6-azaspiro[3.4]octan-6-yl)-4-(4-methyl-2-phenylpiperazine-1-carbonyl)phenyl]cyclopropanecarboxamide]"
4,≤ 50.1 nM,"CC1CC(C)CN(c2cc(NC(=O)C3CC3)ccc2C(=O)N2CCN(C)CC2c2ccccc2)C1 (racemic) [Example 68c, Syn N-[3-[3,5-dimethylpiperidin-1-yl]-4-(4-methyl-2-phenylpiperazine-1-carbonyl)phenyl]cyclopropanecarboxamide]"
5,≤ 50.1 nM,"CN1CCN(C(=O)c2ccc(NC(=O)C3CC3)cc2N2CCCCCC2)C(c2cccs2)C1 (racemic) [Example 69c, N-(3-(azepan-1-yl)-4-(4-methyl-2-(thiophen-2-yl)piperazine-1-carbonyl)phenyl) cyclopropane carboxamide]"
6,63.1 to 251 nM,"CN1CCN(C(=O)c2ccc(NC(=O)C3CC3)cc2N2CCCCCC2)C(c2ccsc2)C1 (racemic) [Example 70c, N-(3-(azepan-1-yl)-4-(4-methyl-2-(thiophen-3-yl)piperazine-1-carbonyl)phenyl)cyclopropane carboxamide]"
7,≤ 50.1 nM,"CCCN1CCN(C(=O)c2ccc(NC(=O)C3CC3)cc2N2CCCCCC2)C(c2ccccc2)C1 (racemic) [Example 73c, N-[3-(azepan-1-yl)-4-(2-phenyl-4-propylpiperazine-1-carbonyl)phenyl]Cyclopropanecarboxamide]"
8,63.1 to 251 nM,"CN1CCN(C(=O)c2ccc(NC(=O)C3CC3)cc2N2CCCC2)C(c2ccccc2F)C1 (racemic) [Example 84c, N-[4-[2-(2-fluorophenyl)-4-methylpiperazine-1-carbonyl]-3-pyrrolidin-1-ylphenyl]cyclopropanecarboxamide]"
9,≤ 50.1 nM,"CN1CCN(C(=O)c2ccc(NC(=O)C3CC3)cc2N2CCC3(CCC3)C2)C(c2cccs2)C1 (racemic) [Example 85, N-[3-(6-azaspiro[3.4]octan-6-yl)-4-(4-methyl-2-thiophen-2-ylpiperazine-1-carbonyl)phenyl]Cyclopropanecarboxamide]"
10,≤ 50.1 nM,"CN1CCN(C(=O)c2ccc(NC(=O)C3CC3)cc2N2CCCC2)C(c2cccs2)C1 (racemic) [Example 86c, N-[4-(4-methyl-2-thiophen-2-ylpiperazine-1-carbonyl)-3-pyrrolidin-1-ylphenyl]cyclopropanecarboxamide]"
11,316 to 1000 nM,"CN1CCN(C(=O)c2ccc(NC(=O)C3CC3)cc2N2CCCC2)C(c2cnn(C)c2)C1 (racemic) [Example 87, N-[4-[4-methyl-2-(1-methylpyrazol-4-yl)piperazine-1-carbonyl]-3-pyrrolidin-1-ylphenyl]Cyclopropanecarboxamide]"
12,63.1 to 251 nM,"CN1CCN(C(=O)c2ccc(NC(=O)C3CC3)cc2N2CCCC2)C(c2cccc(F)c2)C1 (racemic) [Example 88c, N-[4-[2-(3-fluorophenyl)-4-methylpiperazine-1-carbonyl]-3-pyrrolidin-1-ylphenyl]cyclopropanecarboxamide]"
13,316 to 1000 nM,"CN1CCN(C(=O)c2ccc(NC(=O)C3CC3)cc2N2CCCC2)C(c2ccc(F)cc2)C1 (racemic) [Example 89, N-[4-[2-(4-fluorophenyl)-4-methylpiperazine-1-carbonyl]-3-pyrrolidin-1ylphenyl]cyclopropanecarboxamide]"
14,1260 to 6310 nM,"CN1CCN(C(=O)c2ccc(-c3nccn3C)cc2N2CCCC2)C(c2ccccc2)C1 (racemic) [Example 121, [4-(1-methylimidazol-2-yl)-2-pyrrolidin-1-ylphenyl]-(4-methyl-2-phenylpiperazin-1-yl)methanone]"
15,1260 to 6310 nM,"Cc1nnc(-c2ccc(C(=O)N3CCN(C)CC3c3ccccc3)c(N3CCCC3)c2)o1 (racemic) [Example 123, [4-(5-methyl-1,3,4-oxadiazol-2-yl)-2-pyrrolidin-1-ylphenyl]-(4-methyl-2-phenylpiperazin-1-yl)methanone]"
16,≤ 50.1 nM,"CC(C)C1CCN(c2nc(NC(=O)C3CC3)ccc2C(=O)N2CCS(=O)(=O)CC2)C1 (racemic) [Example 142, N-[5-(1,1-dioxo-1,4-thiazinane-4-carbonyl)-6-(3-propan-2-ylpyrrolidin-1-yl)pyridin-2-yl]cyclopropanecarboxamide]"
17,63.1 to 251 nM,"CN1CCN(C(=O)c2ccc(NC(=O)C3CC3)nc2N2CCCC(F)(F)C2)C(c2ccccc2)C1 (racemic) [Example 144, N-[6-(3,3-difluoropiperidin-1-yl)-5-(4-methyl-2-phenylpiperazine-1-carbonyl)pyridin-2-yl]cyclopropanecarboxamide]"
18,63.1 to 251 nM,CN1CCN(C(=O)c2ccc(NC(=O)C3CC3)nc2N2CC3CC3C2)C(c2ccccc2)C1 (racemic) [Example 145]
19,63.1 to 251 nM,"CN1CCN(C(=O)c2ccc(NC(=O)C3CC3)nc2N2CCC(F)(F)CC2)C(c2ccccc2)C1 (racemic) [Example 146, N-[6-(4,4-difluoropiperidin-1-yl)-5-(4-methyl-2-phenylpiperazine-1-carbonyl)pyridin-2-yl]cyclopropanecarboxamide]"
20,63.1 to 251 nM,"CN1CCN(C(=O)c2ccc(NC(=O)C3CC3)nc2N2CCCCC2)C(c2ccccc2)C1 (racemic) [Example 147, N-[5-(4-methyl-2-phenylpiperazine-1-carbonyl)-6-piperidin-1-ylpyridin-2-yl]cyclopropanecarboxamide]"
21,63.1 to 251 nM,"CN1CCN(C(=O)c2ccc(NC(=O)C3CC3)nc2N2CCC(F)(F)C2)C(c2ccccc2)C1 (racemic) [Example 148c, N-[6-(3,3-difluoropyrrolidin-1-yl)-5-(4-methyl-2-phenylpiperazine-1-carbonyl)pyridin-2-yl]cyclopropanecarboxamide]"
22,63.1 to 251 nM,"CN1CCN(C(=O)c2ccc(NC(=O)C3CC3)nc2N2CCCC2)C(c2ccccc2)C1 (racemic) [Example 149c, N-[45-(4-methyl-2-phenylpiperazine-1-carbonyl)-6-pyrrolidin-1-ylpyridin-2-yl]cyclopropanecarboxamide]"
23,63.1 to 251 nM,"Cc1nnc(-c2ccc(C(=O)N3CCN(C)CC3c3ccccc3)c(N3CCCC3)c2)[nH]1 (racemic) [Example 150c, (4-methyl-2-phenylpiperazin-1-yl)-[4-(5-methyl-4H-1,2,4-triazol-3-yl)-2-pyrrolidin-1-ylphenyl]methanone]"
24,63.1 to 251 nM,"CN1CCN(C(=O)c2ccc(-c3nnc(C4CC4)[nH]3)cc2N2CCCC2)C(c2ccccc2)C1 (racemic) [Example 151c, [4-(5-cyclopropyl-4H-1,2,4-triazol-3-yl)-2-pyrrolidin-1-ylphenyl]-(4-methyl-2phenylpiperazin-1-yl)methanone]"
